Results on two compounds are retold here after paper PMC9863607, “Combined Use of Antimicrobial Peptides with Antiseptics against Multidrug-Resistant Bacteria: Pros and Cons” (Pharmaceutics, 2023).

Assay [1] deals with drug-resistant clinical isolates and E. coli ML-35p. Description: Checkerboard titration, all tested bacteria together. Conditions: planktonic bacteria. The assay is classed as cell-based. On the procedure: The mode of interaction of the test substances while applied in combinations was analyzed based on the calculation of the fractional (or combination) indices—the mathematical “embodiment” of the Loewe additivity paradigm that we used for the classification of combination effects in this study. As synergy is generally defined as a greater than additive effect, and antagonism as a lower than additive effect, the main problem is to establish a reference level for this additive effect. The Loewe approach uses the idea of the self-additivity of an individual substance; thus, the individual activity may be regarded as an additivity control. To identify additivity, synergy, or antagonism in Loewe terms, one should choose a fixed level of the studied effect and then compare the doses of individual substances required to reach this level, with the fractional doses of the substances in combination providing the same level of the effect.
In the case of activity testing of combinations toward planktonic bacteria, a checkerboard titration scheme was used to create an array of mixtures of the two substances (A and B) in various concentrations by diluting the first one two-fold row-by-row and the second one column-by-column. The left column and the bottom row contained the dilutions of only one substance (A or B) to control their individual activity levels in every experiment. […]

Assay [2] has as its system K. pneumoniae ESBL 344/17. Put plainly: microbe, parasite or virus in culture. It is filed as cell-based, Klebsiella pneumoniae. Conditions: antiseptics and surfactants; MHB, overnight 37 °C; median of 3–4 independent experiments; prontosan as polyhexanide. How it is done:
(§1) In this regard the test plates were preincubated for 1 h at 37 °C with 0.1% bovine serum albumin (BSA) in distilled water before use. Bacteria were grown overnight at 37 °C with shaking in 2.1% Müller–Hinton broth (MHB), and then a small aliquot was transferred into the fresh portion of the same medium for another 2–3 h on the day of the experiment to provide us with the log phase bacterial suspension. Concentration of bacterial cells in suspension was evaluated based on absorbance at 620 nm and diluted down to 1 × 10^6 CFU/mL with MHB. Equal volumes of the prepared bacterial suspension in MHB and two-fold serial dilutions of the antimicrobials in 10 mM sodium phosphate (Na-P) buffer (pH 7.4) with 0.1% BSA were mixed and incubated overnight at 37 °C. The lowest concentration where no bacterial growth was observed the next day under visual examination was considered the minimal inhibitory concentration. The test was repeated at least three times, and the final MIC value was established as a median result. Each experiment was conducted in triplicates. Terasaki microplates (10 µL end volume, V-shaped bottom; Sarstedt, Nümbrecht, Germany) were used.

Assay [3] has as its system E. coli ESBL 521/17. Put plainly: microbe, parasite or virus in culture. The assay is classed as cell-based, Escherichia coli. As to conditions: antiseptics and surfactants; MHB, overnight 37 °C; median of 3–4 independent experiments; prontosan as polyhexanide. On the procedure: as §1
Assay [4] deals with E. coli ML-35p. Put plainly: Broth microdilution assay (MIC, planktonic bacteria). The assay is classed as cell-based, Escherichia coli. As to conditions: antiseptics and surfactants; MHB, overnight 37 °C; median of 3–4 independent experiments; prontosan as polyhexanide. On the procedure: as §1
A general note: In broth dilution the organism is exposed to a series of concentrations in liquid medium.

For assay [5], the system named is P. aeruginosa MDR 522/17. Put plainly: microbe, parasite or virus in culture. As to conditions: antiseptics and surfactants; MHB, overnight 37 °C; median of 3–4 independent experiments; prontosan as polyhexanide. It is filed as cell-based, Pseudomonas aeruginosa. On the procedure: as §1
Assay [6] has as its system A. baumannii 7226/16. Put plainly: microbe, parasite or virus in culture. The assay is classed as cell-based, Acinetobacter baumannii. As to conditions: antiseptics and surfactants; MHB, overnight 37 °C; median of 3–4 independent experiments; prontosan as polyhexanide. How it is done: as §1
Assay [7] has as its system S. aureus 1399/17. Put plainly: microbe, parasite or virus in culture. Conditions: antiseptics and surfactants; MHB, overnight 37 °C; median of 3–4 independent experiments; prontosan as polyhexanide. It is filed as cell-based, Staphylococcus aureus. On the procedure:
as §1

For assay [8], the system named is bacteria. Conditions: cited from earlier work. The source says: Among surfactants, as was expected based on the literature data, sodium lauroyl sarcosinate was the most universally active toward bacteria. […] This is especially interesting in light of the fact that prontosan has an amidopopyl betaine in its composition alongside the poly ...

Bounds are passed on as bounds.

Regarding `[Na+].[O-]Cl` [Sodium hypochlorite], in assay [1], the “Type of interaction with AMPs, antibacterial effect of combinations” value is listed as “antagonistic interaction”. Besides, the MIC in assay [2] is 5000 µg/mL; in assay [3], 5000 µg/mL; in assay [4], 5000 µg/mL; in assay [5], 5000 µg/mL; in assay [6] it was 2500 µg/mL; in assay [7], 10,000 µg/mL.
With `CCCCCCCCCCCC(=O)N(C)CC(=O)[O-].[Na+]` [Sodium lauroyl sarcosinate], in assay [1], the “Type of interaction with AMPs, antibacterial effect of combinations” value is “antagonistic interaction”. Also, the MIC in assay [2] is given as 12,500 µg/mL; in assay [3], 12,500 µg/mL; in assay [4] it was 6250 µg/mL; in assay [5], 50,000 µg/mL; in assay [6] it was 25,000 µg/mL; in assay [7], >50,000 µg/mL. Further, the “MICs by disk-diffusion method” value in assay [8] was 37.5 to 300 mg/mL.
